≈ marks a conversion by molar mass, not a printed value. Where two headings read alike, the source gives them in different places. Marks after values point to notes of the source that are not given here.
What was measured:
[1] = test system: TC-83 strain of VEEV; assay type: cell-based, Venezuelan equine encephalitis virus
[2] = test system: Vero cells
[3] = test system: TC-83 strain of VEEV; assay type: cell-based, Venezuelan equine encephalitis virus; remark: listed apart in the source
[4] = test system: TC-83 strain of VEEV; assay type: cell-based, Venezuelan equine encephalitis virus; remark: listed apart in the source
[5] = test system: intracellular CTP pools; assay type: cell-based
[6] = test system: TrD VEEV; design: species or system ICR mice; settings: mouse, in vivo
[7] = test system: TC-83 VEEV; assay: microbe, parasite or virus in culture; assay type: cell-based, Venezuelan equine encephalitis virus
[8] = test system: TC-83 VEEV; design: species or system C3H/HeN mice; settings: mouse, in vivo
[9] = test system: TC-83 VEEV; design: species or system C3H/HeN mice; settings: mouse, in vivo; remark: listed apart in the source
[10] = test system: Vero cells; remark: listed apart in the source
[11] = in vivo, iv; cited from earlier work
[12] = test system: TC-83 VEEV; assay: microbe, parasite or virus in culture; assay type: cell-based; settings: Venezuelan equine encephalitis virus, read-out: EC50 (neutral red uptake)

Nc1ccn([C@H]2C[C@@H](CO)[C@H](O)[C@@H]2O)c(=O)n1 (racemic) [(+/-)-carbodine, Carbocyclic cytidine]
EC50 (vis) [1]: 0.68 µg/mL (≈ 2.82 µM)
IC50 [2]: >100 µg/mL
EC50 (NR) [3]: 0.70 µg/mL (≈ 2.9 µM)
EC90 [4]: 1.7 µg/mL (≈ 7.05 µM)

Nc1ccn([C@H]2C[C@@H](CO)[C@H](O)[C@@H]2O)c(=O)n1 [(+)-carbodine]
EC50 (vis) [1]: >100 µg/mL
IC50 [2]: >100 µg/mL
Activity against TC-83 vaccine strain of VEEV [3]: no activity
EC50 (NR) [3]: >100 µg/mL
Intracellular CTP reduction [5]: not reduced
EC90 [4]: >100 µg/mL

Nc1ccn([C@@H]2C[C@H](CO)[C@@H](O)[C@H]2O)c(=O)n1 [(-)-carbodine]
Survival [6]: all animals died
Mean time to death vs placebo ([6]; ip): slight, but significant, extension
EC50 (vis) [1]: 0.3 ± 0.2 ^f μg/ml
Cytidine concentration at which activity was completely abolished [7]: 10 to 32 µg/mL
IC50 [2]: >100 µg/mL
IC50 (neutral red uptake) [2]: >100 µg/mL
EC50 (NR) [3]: 0.2 ± 0.0 µg/mL (≈ 0.829 µM)
Mortality rate [8]: 50%
Reduction of brain virus titer vs placebo [9]: 10 fold
Reduction in intracellular CTP [5]: 65%
EC90 [4]: 0.4 ± 0.2 µg/mL (≈ 1.66 µM)
IC50 (visual inspection) [10]: >100 µg/mL

Nc1ccn([C@@H]2C=C(CO)[C@@H](O)[C@H]2O)c(=O)n1 [Cyclopentenyl cytosine]
Adverse effects in human patients with solid tumors [11]: hypotension and death

Nc1ccn([C@@H]2O[C@H](CO)[C@@H](O)[C@H]2O)c(=O)n1 [Cytidine, cytidine, reference compound]
EC50 ([7]; Venezuelan equine encephalitis virus, read-out: EC50 (visual inspection)): > 100 µg/mL
EC50 [12]: > 100 µg/mL

Interferon alfacon-1
EC50 (vis) [1]: 0.06 µg/mL
EC50 (visual inspection) [7]: 0.06 µg/mL
IC50 [2]: >10 µg/mL
IC50 (neutral red uptake) [2]: >10 µg/mL
EC50 (NR) [3]: 0.05 µg/mL
EC90 [4]: 0.06 µg/mL
IC50 (visual inspection) [10]: >10 µg/mL

Source: paper PMC2612642 (Antiviral research, 2008)
